Test [1] is described as follows: Inhibition of Sulfurihydrogenibium azorense alpha-carbonic anhydrase preincubated for 15 mins by stopped flow CO2 hydration assay.
In test [2] the target is Carbonic anhydrase 1 (Homo sapiens, UniProt P00915). Nature of the test: Inhibition of human cytosolic carbonic anhydrase 1 preincubated for 15 mins by stopped flow CO2 hydration assay.
The target of test [3] is Carbonic anhydrase 2 (Homo sapiens, UniProt P00918). Nature of the test: Inhibition of human cytosolic carbonic anhydrase 2 preincubated for 15 mins by stopped flow CO2 hydration assay.

The values that follow come from ChEMBL document CHEMBL2203254, “Anion inhibition studies of the fastest carbonic anhydrase (CA) known, the extremo-CA from the bacterium Sulfurihydrogenibium azorense” (Bioorg Med Chem Lett, 2012).

For orientation: Ki means the equilibrium dissociation constant of an inhibitor or competing ligand from its target. The low end stands for higher affinity, the high end for lower affinity.

SMILES strings stand for the structures. Structures can show the parent of a compound that is named as a salt. Bounds are passed on as bounds.

Chain of Carbonic anhydrase 1 (P00915 whole entry): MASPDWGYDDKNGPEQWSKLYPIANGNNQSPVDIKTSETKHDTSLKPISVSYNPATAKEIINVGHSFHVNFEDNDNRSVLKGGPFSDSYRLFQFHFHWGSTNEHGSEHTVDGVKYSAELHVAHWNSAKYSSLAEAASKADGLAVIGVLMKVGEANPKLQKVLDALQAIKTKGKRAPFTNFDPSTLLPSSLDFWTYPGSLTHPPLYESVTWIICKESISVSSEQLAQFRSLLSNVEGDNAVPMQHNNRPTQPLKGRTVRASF

Regarding `[Cl-].[Na+]` [SODIUM CHLORIDE], the affinity in test [1] corresponds to a Ki of 850 µM.

The compound `S=C(S)S` [SODIUM CARBONOTRITHIOATE] returned a Ki in test [1] of 39 µM.

In turn, `NS(=O)(=O)O` [SODIUM SULFAMATE] showed a Ki in test [1] of 5 µM. Compared with the last compound, the Ki is about 7.8-fold lower.

For the compound `[I-].[Na+]` [SODIUM IODIDE], the Ki in test [1] turned out to be 870 µM.

`O=[As](O)(O)c1ccccc1` [PHENYLARSONIC ACID SODIUM SALT] returned a Ki in test [1] of 8 µM.

`O=[Se](=O)(O)O` [SODIUM SELENATE] showed a Ki in test [1] of 510 µM.

In turn, `O=S(=O)([O-])[O-].[Na+].[Na+]` [SODIUM SULFATE ANHYDROUS] yielded a Ki in test [1] of 10000 µM.

In test [1], `O=[N+]([O-])[O-].[Na+]` [SODIUM NITRATE] gave a Ki of 760 µM.

Turning to `CCN(CC)C(=S)S` [DITIOCARB SODIUM], the Ki in test [1] is 3 µM.

Regarding `N=C=[Se]` [SODIUM ISOSELENOCYANATE], the Ki in test [1] stood at 490 µM; in test [2], 85 µM.

For the compound `[Br-].[Na+]` [SODIUM BROMIDE], the affinity in test [1] corresponds to a Ki of 940 µM.

Regarding `S` [SODIUM HYDROSULFIDE], the Ki in test [1] came to 380 µM.

In test [1], `NS(N)(=O)=O` [SULFURIC DIAMIDE SODIUM SALT] returned an inhibition constant (Ki) of 4 µM.

In the case of `[O-][Cl+3]([O-])([O-])O` [SODIUM PERCHLORATE], the Ki in test [1] was more than 200000 µM.

In the case of `O=S(=O)(O)ONOS(=O)(=O)O` [SODIUM IMINODISULFATE], the Ki in test [1] worked out at 520 µM; in test [3], 760 µM; in test [2], 310 µM.

For `O=C([O-])[O-].[Na+].[Na+]` [SODIUM CARBONATE], affinity in test [1] was put at a Ki of 7600 µM.

In test [1], `[N-]=[N+]=[N-]` [SODIUM AZIDE] yielded a Ki of 340 µM. Compared with the last compound, the Ki is about 22-fold lower.

In test [1], `O=C([O-])O.[Na+]` [SODIUM BICARBONATE] yielded an inhibitory constant (Ki) of 15700 µM.

For `CC(=O)Nc1nnc(S(N)(=O)=O)s1` [ACETAZOLAMIDE], in test [1], the Ki came out at 0.0009 µM.

In turn, `N=C=S` [SODIUM ISOTHIOCYANATE] showed a Ki in test [1] of 580 µM.

`O=P(O)(O)OP(=O)(O)O` [SODIUM PYROPHOSPHATE] registered a Ki in test [1] of 660 µM.

Regarding `O=NO` [SODIUM NITRITE], the Ki in test [1] amounted to 580 µM.

The compound `O=S(=O)(O)OOS(=O)(=O)O` [SODIUM PERSULFATE] came in with a Ki in test [1] of 32900 µM.

`O=BOB(O)OB(O)OB=O` [SODIUM TETRABORATE] returned a Ki in test [1] of 490 µM. This Ki is about 67-fold lower than that of the compound before.

The compound `O=S([O-])O.[Na+]` [SODIUM BISULFITE] registered a Ki in test [1] of 950 µM.

For `O=[Te](=O)(O)O` [SODIUM TELLURATE], in test [1], affinity was put at a Ki of 410 µM. Compared with the last compound, the Ki is about 2.3-fold lower.

`F[B-](F)(F)F.[Na+]` [SODIUM TETRAFLUOROBORATE] registered a Ki in test [1] of more than 200000 µM.

Compound `OB(O)c1ccccc1` [PHENYLBORONIC ACID SODIUM SALT] showed a Ki in test [1] of 7 µM.

In test [1], `[F-].[Na+]` [SODIUM FLUORIDE] displayed a Ki of 980 µM.
